Assay results taken from patent US20230119539A1, “TRACELESS LINKERS AND PROTEIN-CONJUGATES THEREOF” (Regeneron Pharmaceuticals, Inc., priority 2019, published 2023).

Columns and labels:
[1] = Solubility of linker-payloads and quenched linker-payloads; format: physicochemical; conditions: quenched linker-payloads, Table 6a
Excerpt: The quenched linker-payloads were water soluble and used for the pH stability test.

[2] = pH stability of quenched linker-payloads in buffers (LCMS); format: physicochemical; conditions: for percentage of the remaining compound: RT
Method: To a solution of compound (payloads or quenched-linker-payloads) in DMSO (0.2-1.0 mg/mL) was added corresponding PBS buffer (V(buffer)/V(DMSO)=5) to give test samples (pH 3, 4, 5, 6, 7.4, and 8.5, or other special pH). The test samples were incubated at RT for at least 3 days and monitored by LCMS (i.e., at 1 hr, 2 hr, 4 hr, 8 hr, and 1 day, 2 day, 3 day, 4 day, 5 day, 6 day, 7 day, 8 day, 9 day, and 21 day time points). Initial concentrations of the samples were 0.2 mg/mL (DMSO/buffer, v/v=1/5). […] The payloads and quenched linker-payloads were mostly stable at pH >5.0, 6.0, 7.4 and 8.5 after 3 days. In more acidic conditions, such as pH 1.0, the payloads or linker-payloads were easily cleaved to release D*-OH.

[3] = Solubility of quenched linker-payloads; conditions: Table 3c, linker-payloads quenched with taurine-PEG4-azide or CD-N3

CCCC1O[C@@H]2C[C@H]3[C@@H]4CCC5=CC(=O)C=C[C@]5(C)[C@H]4[C@@H](O)C[C@]3(C)[C@]2(C(=O)COCN(C)C(=O)CNC(=O)OCc2ccc(NC(=O)[C@H](CCCNC(N)=O)NC(=O)[C@@H](NC(=O)CCOCCOCCOCCOCCNC(=O)CCC(=O)N3Cc4ccccc4-c4c(nnn4CCOCCOCCOCCOCCC(=O)NCCS(=O)(=O)O)-c4ccccc43)C(C)C)cc2)O1 (stereo partly drawn) [Q1L1-PII-8]
Solubility [1]: >1000 µg/mL
percentage of the remaining compound ([2]; DMSO, 1 Day): 100%
percentage of the remaining compound ([2]; DMSO, 2 Day): 100%
percentage of the remaining compound ([2]; DMSO, 3 Day): 100%
percentage of the remaining compound ([2]; DMSO, 4 Day): 100%
percentage of the remaining compound ([2]; DMSO, 7 Day): 100%
percentage of the remaining compound ([2]; DMSO, 1 hr): 100%
percentage of the remaining compound ([2]; DMSO, 4 hr): 100%
percentage of the remaining compound ([2]; pH 3.0, 1 Day): 93%
percentage of the remaining compound ([2]; pH 3.0, 2 Day): 89%
percentage of the remaining compound ([2]; pH 3.0, 3 Day): 84%
percentage of the remaining compound ([2]; pH 3.0, 4 Day): 79%
percentage of the remaining compound ([2]; pH 3.0, 7 Day): 65%
percentage of the remaining compound ([2]; pH 3.0, 1 hr): 100%
percentage of the remaining compound ([2]; pH 3.0, 4 hr): 100%
percentage of the remaining compound ([2]; pH 4.0, 1 Day): 100%
percentage of the remaining compound ([2]; pH 4.0, 2 Day): 99%
percentage of the remaining compound ([2]; pH 4.0, 3 Day): 99%
percentage of the remaining compound ([2]; pH 4.0, 4 Day): 98%
percentage of the remaining compound ([2]; pH 4.0, 7 Day): 96%
percentage of the remaining compound ([2]; pH 4.0, 1 hr): 100%
percentage of the remaining compound ([2]; pH 4.0, 4 hr): 100%
LP: percentage of linker-payloads remaining ([2]; pH 4.0, day 1): 100%
P: percentage of budesonide released from the linker-payloads ([2]; pH 4.0, day 1): 0%
LP: percentage of linker-payloads remaining ([2]; pH 4.0, day 2): 99%
P: percentage of budesonide released from the linker-payloads ([2]; pH 4.0, day 2): 0%
LP: percentage of linker-payloads remaining ([2]; pH 4.0, day 7): 96%
P: percentage of budesonide released from the linker-payloads ([2]; pH 4.0, day 7): 3%
percentage of the remaining compound ([2]; pH 5.0, 1 Day): 100%
percentage of the remaining compound ([2]; pH 5.0, 2 Day): 100%
percentage of the remaining compound ([2]; pH 5.0, 3 Day): 100%
percentage of the remaining compound ([2]; pH 5.0, 4 Day): 100%
percentage of the remaining compound ([2]; pH 5.0, 7 Day): 100%
percentage of the remaining compound ([2]; pH 5.0, 1 hr): 100%
percentage of the remaining compound ([2]; pH 5.0, 4 hr): 100%
LP: percentage of linker-payloads remaining ([2]; pH 5.0, day 1): 100%
P: percentage of budesonide released from the linker-payloads ([2]; pH 5.0, day 1): 0%
LP: percentage of linker-payloads remaining ([2]; pH 5.0, day 2): 100%
P: percentage of budesonide released from the linker-payloads ([2]; pH 5.0, day 2): 0%
LP: percentage of linker-payloads remaining ([2]; pH 5.0, day 7): 100%
P: percentage of budesonide released from the linker-payloads ([2]; pH 5.0, day 7): 0%
percentage of the remaining compound ([2]; pH 7.4, 1 Day): 100%
percentage of the remaining compound ([2]; pH 7.4, 2 Day): 100%
percentage of the remaining compound ([2]; pH 7.4, 3 Day): 100%
percentage of the remaining compound ([2]; pH 7.4, 4 Day): 100%
percentage of the remaining compound ([2]; pH 7.4, 7 Day): 100%
percentage of the remaining compound ([2]; pH 7.4, 1 hr): 100%
percentage of the remaining compound ([2]; pH 7.4, 4 hr): 100%
LP: percentage of linker-payloads remaining ([2]; pH 7.4, day 1): 100%
P: percentage of budesonide released from the linker-payloads ([2]; pH 7.4, day 1): 0%
LP: percentage of linker-payloads remaining ([2]; pH 7.4, day 2): 100%
P: percentage of budesonide released from the linker-payloads ([2]; pH 7.4, day 2): 0%
LP: percentage of linker-payloads remaining ([2]; pH 7.4, day 7): 100%
P: percentage of budesonide released from the linker-payloads ([2]; pH 7.4, day 7): 0%
Solubility [3]: >1000 µg/mL

CCCC1O[C@@H]2C[C@H]3[C@@H]4CCC5=CC(=O)C=C[C@]5(C)[C@H]4[C@@H](O)C[C@]3(C)[C@]2(C(=O)COC2CCCN2C(=O)CNC(=O)CCOCCOCCOCCOCCNC(=O)CCC(=O)N2Cc3ccccc3-c3c(nnn3CC3OC4OC5C(CO)OC(OC6C(CO)OC(OC7C(CO)OC(OC8C(CO)OC(OC9C(CO)OC(OC3C(O)C4O)C(O)C9O)C(O)C8O)C(O)C7O)C(O)C6O)C(O)C5O)-c3ccccc32)O1 (stereo partly drawn) [Q2L6-PII-9]
Solubility [1]: >1000 µg/mL
percentage of the remaining compound ([2]; DMSO, 1 Day): 100%
percentage of the remaining compound ([2]; DMSO, 2 Day): 100%
percentage of the remaining compound ([2]; DMSO, 3 Day): 100%
percentage of the remaining compound ([2]; DMSO, 4 Day): 100%
percentage of the remaining compound ([2]; DMSO, 7 Day): 92%
percentage of the remaining compound ([2]; DMSO, 4 hr): 100%
percentage of the remaining compound ([2]; pH 3.0, 1 Day): 0%
percentage of the remaining compound ([2]; pH 3.0, 4 hr): 8%
percentage of the remaining compound ([2]; pH 4.0, 1 Day): 25%
percentage of the remaining compound ([2]; pH 4.0, 2 Day): 8%
percentage of the remaining compound ([2]; pH 4.0, 3 Day): 2%
percentage of the remaining compound ([2]; pH 4.0, 4 Day): 0%
percentage of the remaining compound ([2]; pH 4.0, 4 hr): 71%
percentage of the remaining compound ([2]; pH 5.0, 1 Day): 92%
percentage of the remaining compound ([2]; pH 5.0, 2 Day): 86%
percentage of the remaining compound ([2]; pH 5.0, 3 Day): 82%
percentage of the remaining compound ([2]; pH 5.0, 4 Day): 69%
percentage of the remaining compound ([2]; pH 5.0, 7 Day): 66%
percentage of the remaining compound ([2]; pH 5.0, 4 hr): 100%
percentage of the remaining compound ([2]; pH 7.4, 1 Day): 100%
percentage of the remaining compound ([2]; pH 7.4, 2 Day): 100%
percentage of the remaining compound ([2]; pH 7.4, 3 Day): 100%
percentage of the remaining compound ([2]; pH 7.4, 4 Day): 100%
percentage of the remaining compound ([2]; pH 7.4, 7 Day): 100%
percentage of the remaining compound ([2]; pH 7.4, 1 hr): 100%
percentage of the remaining compound ([2]; pH 7.4, 4 hr): 100%
Solubility [3]: >1000 µg/mL

CCCC1O[C@@H]2C[C@H]3[C@@H]4CCC5=CC(=O)C=C[C@]5(C)[C@H]4[C@@H](O)C[C@]3(C)[C@]2(C(=O)COCNC(=O)CNC(=O)CCC(=O)N2Cc3ccccc3-c3c(nnn3CC3OC4OC5C(CO)OC(OC6C(CO)OC(OC7C(CO)OC(OC8C(CO)OC(OC9C(CO)OC(OC3C(O)C4O)C(O)C9O)C(O)C8O)C(O)C7O)C(O)C6O)C(O)C5O)-c3ccccc32)O1 (stereo partly drawn) [Q2L7-PII-1]
Solubility [1]: >1000 µg/mL
percentage of the remaining compound ([2]; DMSO, 1 Day): 97%
percentage of the remaining compound ([2]; DMSO, 2 Day): 97%
percentage of the remaining compound ([2]; DMSO, 3 Day): 97%
percentage of the remaining compound ([2]; DMSO, 4 Day): 97%
percentage of the remaining compound ([2]; DMSO, 7 Day): 97%
percentage of the remaining compound ([2]; DMSO, 1 hr): 97%
percentage of the remaining compound ([2]; DMSO, 4 hr): 97%
percentage of the remaining compound ([2]; pH 3.0, 1 Day): 100%
percentage of the remaining compound ([2]; pH 3.0, 2 Day): 100%
percentage of the remaining compound ([2]; pH 3.0, 3 Day): 96%
percentage of the remaining compound ([2]; pH 3.0, 4 Day): 95%
percentage of the remaining compound ([2]; pH 3.0, 7 Day): 91%
percentage of the remaining compound ([2]; pH 3.0, 1 hr): 100%
percentage of the remaining compound ([2]; pH 3.0, 4 hr): 100%
percentage of the remaining compound ([2]; pH 4.0, 1 Day): 100%
percentage of the remaining compound ([2]; pH 4.0, 2 Day): 100%
percentage of the remaining compound ([2]; pH 4.0, 3 Day): 100%
percentage of the remaining compound ([2]; pH 4.0, 4 Day): 100%
percentage of the remaining compound ([2]; pH 4.0, 7 Day): 100%
percentage of the remaining compound ([2]; pH 4.0, 1 hr): 100%
percentage of the remaining compound ([2]; pH 4.0, 4 hr): 100%
percentage of the remaining compound ([2]; pH 5.0, 1 Day): 100%
percentage of the remaining compound ([2]; pH 5.0, 2 Day): 100%
percentage of the remaining compound ([2]; pH 5.0, 3 Day): 100%
percentage of the remaining compound ([2]; pH 5.0, 4 Day): 100%
percentage of the remaining compound ([2]; pH 5.0, 7 Day): 100%
percentage of the remaining compound ([2]; pH 5.0, 1 hr): 100%
percentage of the remaining compound ([2]; pH 5.0, 4 hr): 100%
percentage of the remaining compound ([2]; pH 7.4, 1 Day): 100%
percentage of the remaining compound ([2]; pH 7.4, 2 Day): 100%
percentage of the remaining compound ([2]; pH 7.4, 3 Day): 100%
percentage of the remaining compound ([2]; pH 7.4, 4 Day): 100%
percentage of the remaining compound ([2]; pH 7.4, 7 Day): 100%
percentage of the remaining compound ([2]; pH 7.4, 1 hr): 100%
percentage of the remaining compound ([2]; pH 7.4, 4 hr): 100%
Solubility [3]: >1000 µg/mL
